{
  "source": "the pKa sets of Baltruschat and Czodrowski (2020)",
  "data": [
    {"conditions": "acidic group", "values": [
      {"smiles": "Cc1c(C(=O)O)[nH]c2ccccc12", "pKa": 4.33},
      {"smiles": "O=C1C[C@H](C(=O)O)[C@@H](C(=O)[O-])O1", "pKa": 3.82}
    ]},
    {"conditions": "basic group", "values": [
      {"smiles": "O=C(O)c1cc2ccccc2[nH]1", "pKa": -0.57},
      {"smiles": "CN(C)CCCC(=O)Oc1ccc([N+](=O)[O-])cc1", "pKa": 9.6},
      {"smiles": "OCNc1ccc(Cl)cc1", "pKa": 2.22},
      {"smiles": "NCCCCCCCCCCC(=O)[O-]", "pKa": 11},
      {"smiles": "Nc1ccc(C=O)cc1", "pKa": 1.74},
      {"smiles": "CN(C)/C=N/c1cccc([N+](=O)[O-])c1", "pKa": 7.29},
      {"smiles": "CCOC(=O)C1CN2CCC1CC2", "note": "(centres undefined)", "pKa": 9.64},
      {"smiles": "COc1ccc2c3c1O[C@@H]1C(=O)CC[C@]4(O)[C@H](C2)N(C)CC[C@@]314", "pKa": 8.6},
      {"smiles": "OC[C@@H]1O[C@H](n2cnc3c([S-])ncnc32)[C@@H](O)[C@H]1O", "pKa": 7.63},
      {"smiles": "CC(=N\\O)/C(CN(C)C)=N\\O", "pKa": 8.4},
      {"smiles": "CCc1cccnc1", "pKa": 5.57},
      {"smiles": "C1CN(CC[NH+]2CCOCC2)CCO1", "pKa": 3.63},
      {"smiles": "Cc1cc(N)nc2c1ccc1ccccc12", "pKa": 6.02},
      {"smiles": "Oc1cccc2nnccc12", "pKa": 1.92},
      {"smiles": "O=C(CCCN1CCC(O)(c2ccccc2)CC1)c1ccccc1", "pKa": 8.4},
      {"smiles": "CCOC(=O)C1(c2ccccc2)CCN(CC)CC1", "pKa": 9.03},
      {"smiles": "Cn1cnc(=O)c(-c2ccccc2)c1", "pKa": 1.99},
      {"smiles": "Nc1cccc2ccncc12", "pKa": 6.06},
      {"smiles": "Cn1nncc1Nc1ccccc1", "pKa": 1.73},
      {"smiles": "CCOC(=O)CN", "pKa": 7.74},
      {"smiles": "CCN(CC)CCO", "pKa": 9.84},
      {"smiles": "Cc1ccc(OC(=O)CCCN(C)C)cc1", "pKa": 9.53},
      {"smiles": "CCOCCNc1ccccc1", "pKa": 4.04},
      {"smiles": "CCCNc1ccncc1S(=O)(=O)NC(=O)NC(C)C", "pKa": 7.58},
      {"smiles": "Cc1ccc(C)c(C(=N)c2ccccc2)c1", "pKa": 6.79},
      {"smiles": "N#CC1=CN2CCC1CC2", "pKa": 5.84},
      {"smiles": "Cc1ccccc1CN", "pKa": 9.23},
      {"smiles": "NCCCCNCCCN", "pKa": 10.6},
      {"smiles": "CN(C)c1ccccc1C(=O)[O-]", "pKa": 8.46},
      {"smiles": "Nc1cccc2nnccc12", "pKa": 2.7},
      {"smiles": "COc1cc(S(C)=O)ccc1-c1nc2cnccc2[nH]1", "note": "(centres undefined)", "pKa": 6.16},
      {"smiles": "CC(C)N(CC1CO1)CC1CO1", "note": "(centres undefined)", "pKa": 7.07},
      {"smiles": "NCCC[Se-]", "pKa": 11.3},
      {"smiles": "CCNC(N)=O", "pKa": 1.19},
      {"smiles": "C[Si](C)(C)OC1CN(Cc2ccc(Cl)cc2)C1", "pKa": 7.72},
      {"smiles": "CN(C)c1ccc(/C=C/c2cc[n+]([O-])cc2)cc1", "pKa": 4.3},
      {"smiles": "Cc1c(C(=O)[O-])sc2cc(Cn3ccnc3)ccc12", "pKa": 6.35},
      {"smiles": "[NH3+]c1ccccc1-c1nc2ccccc2s1", "pKa": -1.8},
      {"smiles": "Cc1cnn(C)c1C", "pKa": 3.58},
      {"smiles": "Nc1ccccc1-c1ccccc1", "pKa": 3.81},
      {"smiles": "Cn1cncc1C[C@H](N)C(=O)[O-]", "pKa": 8.72},
      {"smiles": "COCCN(C)c1ccccc1", "pKa": 4.81},
      {"smiles": "COc1ccc(/N=N/c2c(N)n[nH]c2N)cc1", "pKa": 3.39},
      {"smiles": "CC(CN(C)C)N(C)C", "note": "(centres undefined)", "pKa": 9.49},
      {"smiles": "NC(N)=O", "pKa": 0.4},
      {"smiles": "O=CC1c2ccccc2-c2ccccc21", "pKa": 6.2},
      {"smiles": "Cc1ccc(N2CCCC(=O)C(O)CCC2)cc1", "note": "(centres undefined)", "pKa": 3.2},
      {"smiles": "CC(N)C/C(N)=N/O", "note": "(centres undefined)", "pKa": 9.15},
      {"smiles": "Nc1ccc2c([N+](=O)[O-])cccc2c1", "pKa": 3.16},
      {"smiles": "Nc1nc2ccccc2nc1N", "pKa": 4.7},
      {"smiles": "C[Si](C)(CNC1CCCCC1)O[Si](C)(C)CNC1CCCCC1", "pKa": 10.1},
      {"smiles": "C[C@H](N)C(=O)[O-]", "pKa": 9.72},
      {"smiles": "Nc1ccc(-c2ccc(/[NH+]=C/c3ccccc3O)cc2)cc1", "pKa": 4.75},
      {"smiles": "Oc1cccc2cnccc12", "pKa": 5.4},
      {"smiles": "CCCCNCCN", "pKa": 10.3},
      {"smiles": "Cc1ccccc1/C(=N/CCCN(C)C)c1ccccc1", "pKa": 9},
      {"smiles": "Cc1ccc2c(c1)CCN2", "pKa": 5},
      {"smiles": "NCC/C=C/C(=O)[O-]", "pKa": 9.95},
      {"smiles": "CCN(C)CCOCCN(C)C", "pKa": 9.65},
      {"smiles": "C=CCNCC=C", "pKa": 9.35},
      {"smiles": "Nc1cnc2c(N)nc(N)nc2n1", "pKa": 6.3},
      {"smiles": "O=C1CC[C@H]2N1CC[C@H]1c3ccccc3CCN12", "pKa": 4.89},
      {"smiles": "C1=C(c2nc3ccccc3o2)C2CCN1CC2", "pKa": 7.23},
      {"smiles": "c1ccc(CNc2nccs2)cc1", "pKa": 5.15},
      {"smiles": "CC(C)(C)SC(=N)c1ccccc1", "pKa": 9.24},
      {"smiles": "Nc1ccc2[nH]cnc2c1", "pKa": 6.11},
      {"smiles": "COC(=O)N1c2ccccc2[C@@]23CCN4CC=C[C@]5(CC[C@]12[C@](O)(C(=O)OC)C5O)[C@H]43", "note": "(some centres undefined)", "pKa": 5.63},
      {"smiles": "CC(C)(N)Cc1ccccc1", "pKa": 10.1},
      {"smiles": "CN(C)Cc1cccc(NC(=O)/C=N/[O-])c1", "pKa": 9.12},
      {"smiles": "Cc1cc2cccc(O)c2nc1C", "pKa": 5.86},
      {"smiles": "Nc1ccc(-c2ccc(/N=C/c3ccccc3O)cc2)cc1", "pKa": 7.68},
      {"smiles": "c1ccc2c(c1)N1CC[NH+]2CC1", "pKa": 2.5},
      {"smiles": "CC(=O)Nc1ccc(C2CCC[NH+]2C)cn1", "note": "(centres undefined)", "pKa": 2.2},
      {"smiles": "CNCC(C)C[NH2+]C", "pKa": 8.29},
      {"smiles": "NCC[n+]1ccc2c([N+](=O)[O-])cccc2c1", "pKa": 6.65},
      {"smiles": "[O-]c1nccc2nccnc12", "pKa": 11.1},
      {"smiles": "COc1cc(CN)ccc1O", "pKa": 8.94},
      {"smiles": "Nc1ccc(N)c(N)c1", "pKa": 6.1},
      {"smiles": "Cn1cc2ccccc2n1", "pKa": 2.13},
      {"smiles": "OCCC[C@H]1CC[C@@H]2CCCN12", "pKa": 11.2},
      {"smiles": "CSc1ccc2ncccc2c1", "pKa": 4.75},
      {"smiles": "[O-]/C(=C/c1ccncc1)c1ccccc1", "pKa": 7.05},
      {"smiles": "CCOc1cccc(/N=C/N(C)C)c1", "pKa": 8.87},
      {"smiles": "CCC(C)N", "note": "(centres undefined)", "pKa": 10.6},
      {"smiles": "Cc1cccc(C)c1NC(=O)CN(C)C", "pKa": 7.36},
      {"smiles": "O=[N+]([O-])c1cccc(Nc2ccccc2)c1", "pKa": -1.27},
      {"smiles": "Cc1c[n+](C)c([O-])nc1N", "pKa": 4.76}
    ]}
  ]
}
